Patent publication US20050203071A1, “Use of carbon-2-modified-19-nor-vitamin d analogs to induce the formation of new bone” (priority 2003, published 2005)
Where two headings read alike, the source gives them in different places.

Assays:
[1] = system: human osteoblast cultures; test: bone nodule formation in vitro in human osteoblast cultures (Von Kossa stain); format: cell-based; settings: for stimulation of osteoblast cultures to form mineralized bone, Von Kossa stain (FIG. 2): different concentrations, human osteoblast cultures
Excerpt: Human bone samples discarded after surgical procedures from patients undergoing hip/knee replacement surgeries are obtained under an approved IRB protocol (Protocol #2001-055) and processed as described below. These bone pieces are otherwise routinely discarded as waste material during surgery.
The bone pieces are thoroughly washed and cleaned under sterile conditions using phosphate-buffered saline (PBS). These pieces are then cut to obtain smaller pieces (1-2 mm^3) and subjected to enzymatic digestion process to isolate osteoblasts as described below.
Osteoblastic cells are obtained from the bone pieces by collagenase digestion. Briefly, the bone samples are washed twice in PBS and dissected in about 1 mm^3 size fragments which are then sequentially digested in trypsin (1 mg/mL) for ten minutes, followed by dispase (2 mg/mL) for twenty minutes, and bacterial collagenase [Collagenase A] (3 mg/mL) twice for thirty minutes in PBS at 37° C. in a water bath. Cells released by collagenase digestion are then washed, counted and grown to sub-confluence in 25 cm^2 cell culture flasks in 1:1 Ham's F12/Dulbecco's modification of Eagle's medium (DMEM) supplemented with 10% fetal bovine serum. Cells are cultured at 37° C. in a humidified atmosphere of 5% CO2/95% air. Medium changes are made every 2-3 days and cells are cultured until they are 80% confluent. Cells are then trypsinized, washed and frozen from early passages for evaluation using techniques as described below.
In order to evaluate the ability of osteoblasts to form bone nodules in vitro, cells are cultured in 6 well plates at 1-3×10^5 cells/well. Cells are cultured in the presence of either 1,25-(OH)2D3 or vitamin D analogs at various doses for 7 days. Complete medium changes are carried out twice during the 7-day period and the medium is supplemented with fresh compounds (either 1,25-(OH)2D3 or 2-methylene-19-nor-(20S)-1α,25-dihydroxyvitamin D3—2MD) during each medium change. At days 10 and 13, complete medium changes are carried out and the compounds are replaced by treatment with ascorbic acid (50 μg/ml) and β-glycerol phosphate (10 mM). A third dose of ascorbic acid and β-glycerol phosphate is added to the cultures on day 15 if needed. Following the culture period, cells are stained using the Von Kossa technique. Briefly, cells are stained with 5% silver nitrate for 30 minutes in the dark, rinsed with distilled water, reduced with sodium carbonate/formaldehyde solution for 2 minutes and washed under tap water for 10 minutes. The cells are then stained with methyl green pyronin for 20 minutes, washed with water followed by two washes of absolute alcohol. […] Bone nodule formation in vitro can be assessed quantitatively by various published procedures.

ovariectomized rats = settings: ovariectomized animal/rats, cited from earlier work

| SMILES | degree of new bone formation ([1]; concentration of 10^−12 molar) | stimulation of osteoblast cultures to form mineralized bone, Von Kossa stain (FIG. 2) [1] | bone mass (ovariectomized rats) | bone mass (ovariectomized rats; listed as 2-methylene-19-nor-20S-1,25-(OH)2D3) | change in osteoblast cultures / formation of mineralized bone (FIG. 1) ([1]; 10^−8 molar, after 14 days of incubation) |
| --- | --- | --- | --- | --- | --- |
| C=C1[C@H](O)CC(=C/C=C2\CCC[C@]3(C)[C@@H]([C@@H](C)CCCC(C)(C)O)CC[C@@H]23)C[C@H]1O [2MD, 2-methylene-19-nor-(20S)-1α,25-dihydroxyvitamin D3] | saturating degree of new bone formation | unique and strong action | markedly stimulate bone mass accumulation | increase bone mass | – |
| CC1C(O)CC(=CC=C2CCC[C@]3(C)[C@@H]([C@@H](C)CCCC(C)(C)O)CC[C@@H]23)CC1O (stereo partly drawn) [2α-methyl-19-nor-20S-1,25-(OH)2D3, 2α-methyl-19-nor-20(S)-1α,25-dihydroxyvitamin D3] | – | – | increase bone mass | – | – |
| C=C1/C(=C\C=C2/CCC[C@]3(C)[C@@H]([C@H](C)CCCC(C)(C)O)CC[C@@H]23)C[C@@H](O)C[C@@H]1O [1,25-(OH)2D3, 1α,25-dihydroxyvitamin D3, reference compound] | – | does not produce this effect | – | – | very little change |
